Laboratory results from US20150176022A1, “HERBICIDE-RESISTANT SUNFLOWER PLANTS, POLYNUCLEOTIDES ENCODING HERBICIDE=RESISTANT ACETO HYDROXY ACID SYNTHASE LARGE SUBUNIT PROTEINS, AND METHODS OF USE” (priority 2013, published 2015).

What was measured:
Test in all cases: Greenhouse whole-plant imazapir dose response (Example 8)
Type in all cases: in vivo, Helianthus annuus
Settings in all cases: 14 DAT
[1] = test system: sunflower TH1 (Hybrid, A205V)
Description: (§1) A greenhouse study was conducted to quantify and contrast the imazapir sensitivity of the mutants A122T and A205V in different genetic backgrounds at the whole plant level in sunflower. Seeds of the different sunflower lines that were used in this study were obtained under field conditions.
(§2) Seeds were sown in Petri dishes and, after germination, plantlets were transplanted to pots of 10 cm of diameter in a potting media consisting of equal parts of vermiculite, soil and sand. Plants were grown in a greenhouse under natural light conditions supplemented with 400 W sodium halide lamps to provide a 16 hrs daylength. Day/night temperatures were 25 and 20° C., respectively. At the V2 stage 10 plants of each genotype were randomly assigned to each treatment consisting of […] imazapir doses (0, 40, 80, 160, 240, 320, 400 and 480 g ai/ha), and a zero-time biomass determination. Experiment was arranged as a randomized block design with a full factorial (sunflower line×treatment) arrangement of treatments and 10 replications.
(§3) On the day of herbicide application ten plants of each genotype were cut at the cotyledonal node and dried at 60° C. for 48 hrs zero-time for dried weight determination. […] Height was determined as the distance between the cotyledonal node and the apex of each plant. For root biomass determination, each plant was taken from the pot and the potting media was washed out from the roots. Above ground biomass data from each line were converted to biomass accumulation after application by subtracting the appropriate average zero-time biomass from each sample. Dry biomass data were converted to percentages of the untreated control plants within each line to allow direct comparisons between groups.

[2] = test system: sunflower TH9 (Hybrid, A205V)
Description: as §1, §2, §3

[3] = test system: sunflower TH6 (Hybrid, A122T)
Description: as §1, §2, §3

[4] = test system: sunflower TH12 (Restorer Line, A122T)
Description: as §1, §2, §3

Structure (SMILES): CC(C)C1(C)N=C(c2ncccc2C(=O)O)NC1=O (stereo not shown) [imazapir, imazapyr]
- Phytotoxicity Index ([1]; 0.5× (40 g ai/ha)): 0
- biomass accumulation (dry biomass, % of untreated) ([1]; 0.5× (40 g ai/ha)): 95.0%
- plant height (% of untreated) ([1]; 0.5× (40 g ai/ha)): 99.5%
- root dry weight (% of untreated) ([1]; 0.5× (40 g ai/ha)): 79.4%
- Phytotoxicity Index ([1]; 1× (80 g ai/ha)): 0
- biomass accumulation (dry biomass, % of untreated) ([1]; 1× (80 g ai/ha)): 89.6%
- plant height (% of untreated) ([1]; 1× (80 g ai/ha)): 99.5%
- root dry weight (% of untreated) ([1]; 1× (80 g ai/ha)): 70.7%
- Phytotoxicity Index ([1]; 2× (160 g ai/ha)): 1.8
- biomass accumulation (dry biomass, % of untreated) ([1]; 2× (160 g ai/ha)): 75.5%
- plant height (% of untreated) ([1]; 2× (160 g ai/ha)): 78.6%
- root dry weight (% of untreated) ([1]; 2× (160 g ai/ha)): 69.6%
- Phytotoxicity Index ([1]; 3× (240 g ai/ha)): 6.4
- biomass accumulation (dry biomass, % of untreated) ([1]; 3× (240 g ai/ha)): 60.4%
- plant height (% of untreated) ([1]; 3× (240 g ai/ha)): 48.4%
- root dry weight (% of untreated) ([1]; 3× (240 g ai/ha)): 42.3%
- Phytotoxicity Index ([1]; 4× (320 g ai/ha)): 8.0
- biomass accumulation (dry biomass, % of untreated) ([1]; 4× (320 g ai/ha)): 46.5%
- plant height (% of untreated) ([1]; 4× (320 g ai/ha)): 28.9%
- root dry weight (% of untreated) ([1]; 4× (320 g ai/ha)): 38.6%
- Phytotoxicity Index ([1]; 5× (400 g ai/ha)): 8.9
- biomass accumulation (dry biomass, % of untreated) ([1]; 5× (400 g ai/ha)): 38.9%
- plant height (% of untreated) ([1]; 5× (400 g ai/ha)): 25.3%
- root dry weight (% of untreated) ([1]; 5× (400 g ai/ha)): 34.7%
- Phytotoxicity Index ([1]; 6× (480 g ai/ha)): 9.0
- biomass accumulation (dry biomass, % of untreated) ([1]; 6× (480 g ai/ha)): 33.9%
- plant height (% of untreated) ([1]; 6× (480 g ai/ha)): 27.1%
- root dry weight (% of untreated) ([1]; 6× (480 g ai/ha)): 23.1%
- Phytotoxicity Index ([2]; 0.5× (40 g ai/ha)): 0
- biomass accumulation (dry biomass, % of untreated) ([2]; 0.5× (40 g ai/ha)): 91.7%
- plant height (% of untreated) ([2]; 0.5× (40 g ai/ha)): 100.0%
- root dry weight (% of untreated) ([2]; 0.5× (40 g ai/ha)): 81.5%
- Phytotoxicity Index ([2]; 1× (80 g ai/ha)): 0
- biomass accumulation (dry biomass, % of untreated) ([2]; 1× (80 g ai/ha)): 81.7%
- plant height (% of untreated) ([2]; 1× (80 g ai/ha)): 100.0%
- root dry weight (% of untreated) ([2]; 1× (80 g ai/ha)): 84.9%
- Phytotoxicity Index ([2]; 2× (160 g ai/ha)): 1.6
- biomass accumulation (dry biomass, % of untreated) ([2]; 2× (160 g ai/ha)): 54.7%
- plant height (% of untreated) ([2]; 2× (160 g ai/ha)): 78.9%
- root dry weight (% of untreated) ([2]; 2× (160 g ai/ha)): 58.8%
- Phytotoxicity Index ([2]; 3× (240 g ai/ha)): 5.1
- biomass accumulation (dry biomass, % of untreated) ([2]; 3× (240 g ai/ha)): 35.7%
- plant height (% of untreated) ([2]; 3× (240 g ai/ha)): 50.0%
- root dry weight (% of untreated) ([2]; 3× (240 g ai/ha)): 34.1%
- Phytotoxicity Index ([2]; 4× (320 g ai/ha)): 8.4
- biomass accumulation (dry biomass, % of untreated) ([2]; 4× (320 g ai/ha)): 25.3%
- plant height (% of untreated) ([2]; 4× (320 g ai/ha)): 38.1%
- root dry weight (% of untreated) ([2]; 4× (320 g ai/ha)): 27.3%
- Phytotoxicity Index ([2]; 5× (400 g ai/ha)): 8.9
- biomass accumulation (dry biomass, % of untreated) ([2]; 5× (400 g ai/ha)): 19.8%
- plant height (% of untreated) ([2]; 5× (400 g ai/ha)): 31.8%
- root dry weight (% of untreated) ([2]; 5× (400 g ai/ha)): 29.9%
- Phytotoxicity Index ([2]; 6× (480 g ai/ha)): 8.9
- biomass accumulation (dry biomass, % of untreated) ([2]; 6× (480 g ai/ha)): 19.5%
- plant height (% of untreated) ([2]; 6× (480 g ai/ha)): 34.7%
- root dry weight (% of untreated) ([2]; 6× (480 g ai/ha)): 22.1%
- Phytotoxicity Index ([3]; 0.5× (40 g ai/ha)): 0.5
- biomass accumulation (dry biomass, % of untreated) ([3]; 0.5× (40 g ai/ha)): 100%
- plant height (% of untreated) ([3]; 0.5× (40 g ai/ha)): 99.2%
- root dry weight (% of untreated) ([3]; 0.5× (40 g ai/ha)): 100%
- Phytotoxicity Index ([3]; 1× (80 g ai/ha)): 0.5
- biomass accumulation (dry biomass, % of untreated) ([3]; 1× (80 g ai/ha)): 97.2%
- plant height (% of untreated) ([3]; 1× (80 g ai/ha)): 98.6%
- root dry weight (% of untreated) ([3]; 1× (80 g ai/ha)): 98.1%
- Phytotoxicity Index ([3]; 2× (160 g ai/ha)): 0.5
- biomass accumulation (dry biomass, % of untreated) ([3]; 2× (160 g ai/ha)): 97.9%
- plant height (% of untreated) ([3]; 2× (160 g ai/ha)): 100.3%
- root dry weight (% of untreated) ([3]; 2× (160 g ai/ha)): 96.2%
- Phytotoxicity Index ([3]; 3× (240 g ai/ha)): 0.5
- biomass accumulation (dry biomass, % of untreated) ([3]; 3× (240 g ai/ha)): 98.2%
- plant height (% of untreated) ([3]; 3× (240 g ai/ha)): 99.6%
- root dry weight (% of untreated) ([3]; 3× (240 g ai/ha)): 79.3%
- Phytotoxicity Index ([3]; 4× (320 g ai/ha)): 0.5
- biomass accumulation (dry biomass, % of untreated) ([3]; 4× (320 g ai/ha)): 97.8%
- plant height (% of untreated) ([3]; 4× (320 g ai/ha)): 101.0%
- root dry weight (% of untreated) ([3]; 4× (320 g ai/ha)): 78.4%
- Phytotoxicity Index ([3]; 5× (400 g ai/ha)): 0.5
- biomass accumulation (dry biomass, % of untreated) ([3]; 5× (400 g ai/ha)): 85.1%
- plant height (% of untreated) ([3]; 5× (400 g ai/ha)): 87.0%
- root dry weight (% of untreated) ([3]; 5× (400 g ai/ha)): 85.8%
- Phytotoxicity Index ([3]; 6× (480 g ai/ha)): 0.5
- biomass accumulation (dry biomass, % of untreated) ([3]; 6× (480 g ai/ha)): 79.5%
- plant height (% of untreated) ([3]; 6× (480 g ai/ha)): 79.6%
- root dry weight (% of untreated) ([3]; 6× (480 g ai/ha)): 57.3%
- Phytotoxicity Index ([4]; 0.5× (40 g ai/ha)): 0.0
- biomass accumulation (dry biomass, % of untreated) ([4]; 0.5× (40 g ai/ha)): 100.0%
- plant height (% of untreated) ([4]; 0.5× (40 g ai/ha)): 100.0%
- root dry weight (% of untreated) ([4]; 0.5× (40 g ai/ha)): 99.4%
- Phytotoxicity Index ([4]; 1× (80 g ai/ha)): 0.0
- biomass accumulation (dry biomass, % of untreated) ([4]; 1× (80 g ai/ha)): 99.1%
- plant height (% of untreated) ([4]; 1× (80 g ai/ha)): 100.0%
- root dry weight (% of untreated) ([4]; 1× (80 g ai/ha)): 100%
- Phytotoxicity Index ([4]; 2× (160 g ai/ha)): 0.0
- biomass accumulation (dry biomass, % of untreated) ([4]; 2× (160 g ai/ha)): 97.0%
- plant height (% of untreated) ([4]; 2× (160 g ai/ha)): 101.8%
- root dry weight (% of untreated) ([4]; 2× (160 g ai/ha)): 100%
- Phytotoxicity Index ([4]; 3× (240 g ai/ha)): 0.0
- biomass accumulation (dry biomass, % of untreated) ([4]; 3× (240 g ai/ha)): 96.1%
- plant height (% of untreated) ([4]; 3× (240 g ai/ha)): 97.0%
- root dry weight (% of untreated) ([4]; 3× (240 g ai/ha)): 100.0%
- Phytotoxicity Index ([4]; 4× (320 g ai/ha)): 0.0
- biomass accumulation (dry biomass, % of untreated) ([4]; 4× (320 g ai/ha)): 84.3%
- plant height (% of untreated) ([4]; 4× (320 g ai/ha)): 92.1%
- root dry weight (% of untreated) ([4]; 4× (320 g ai/ha)): 74.5%
- Phytotoxicity Index ([4]; 5× (400 g ai/ha)): 0.0
- biomass accumulation (dry biomass, % of untreated) ([4]; 5× (400 g ai/ha)): 77.5%
- plant height (% of untreated) ([4]; 5× (400 g ai/ha)): 84.8%
- root dry weight (% of untreated) ([4]; 5× (400 g ai/ha)): 65.0%
- Phytotoxicity Index ([4]; 6× (480 g ai/ha)): 0.5
- biomass accumulation (dry biomass, % of untreated) ([4]; 6× (480 g ai/ha)): 70.7%
- plant height (% of untreated) ([4]; 6× (480 g ai/ha)): 79.8%
- root dry weight (% of untreated) ([4]; 6× (480 g ai/ha)): 57.8%
